The results in this text go back to patent publication US20230167073A1 (Teijin Pharma Limited, priority 2020, published 2023).

Some results are limits rather than exact numbers.

The target in this experiment is T1, Human TRPC6 (Homo sapiens, UniProt Q9Y210).
T1 construct: expressed in transfected cells
T1 sequence (Q9Y210 1-931): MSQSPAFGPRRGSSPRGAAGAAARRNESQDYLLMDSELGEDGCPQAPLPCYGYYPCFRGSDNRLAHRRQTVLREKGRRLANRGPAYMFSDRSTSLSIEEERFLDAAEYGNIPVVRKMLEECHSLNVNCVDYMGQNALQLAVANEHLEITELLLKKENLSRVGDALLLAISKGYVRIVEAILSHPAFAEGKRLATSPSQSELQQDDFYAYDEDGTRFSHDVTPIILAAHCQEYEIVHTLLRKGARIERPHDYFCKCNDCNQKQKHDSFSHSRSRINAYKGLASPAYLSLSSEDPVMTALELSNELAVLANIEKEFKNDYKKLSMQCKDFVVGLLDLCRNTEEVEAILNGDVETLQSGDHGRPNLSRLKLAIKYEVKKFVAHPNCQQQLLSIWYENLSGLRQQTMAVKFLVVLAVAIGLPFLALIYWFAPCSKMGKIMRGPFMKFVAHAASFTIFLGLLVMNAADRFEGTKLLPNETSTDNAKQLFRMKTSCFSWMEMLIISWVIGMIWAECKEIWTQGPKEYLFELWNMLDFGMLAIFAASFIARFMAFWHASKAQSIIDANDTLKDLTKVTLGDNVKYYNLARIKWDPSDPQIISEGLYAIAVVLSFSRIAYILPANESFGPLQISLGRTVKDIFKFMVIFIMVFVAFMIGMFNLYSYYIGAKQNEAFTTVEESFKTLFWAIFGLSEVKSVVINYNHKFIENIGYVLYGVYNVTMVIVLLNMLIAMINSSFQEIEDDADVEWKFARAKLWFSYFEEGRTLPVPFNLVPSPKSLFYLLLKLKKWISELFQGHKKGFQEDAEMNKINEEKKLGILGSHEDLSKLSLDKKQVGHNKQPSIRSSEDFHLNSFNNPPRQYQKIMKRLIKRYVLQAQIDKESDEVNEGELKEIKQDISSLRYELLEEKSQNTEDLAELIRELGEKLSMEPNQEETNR
Put plainly: Evaluation of TRPC6 channel inhibitory activity (1), FLIPR Calcium 5 Assay Kit, OAG stimulation (Compound Nos. 1-1293). Format: cell-based. The conditions noted are these: Human TRPC6 stably-expressing cells, OAG 30 μM, FLIPR Calcium 5 Assay Kit; read-out: Inhibitory activity (pIC50 class) (converted). In short, it runs like this: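 TRPC6 (human) stable cells, 24 h culture; Ca5 no-wash dye + probenecid 30 min; cpd 20 min; OAG 30 μM final; ΔF (pre-cpd min to post-OAG max); 0%/100% = no cpd / no cpd + no OAG; 4PL → pIC50, binned +/++/+++.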
For `Cn1nc(-c2ccccc2)cc1Oc1cc(C#N)ccc1-c1ccc(CN)cn1` [Compound 289, 4-[5-(aminomethyl)pyridin-2-yl]-3-(2-methyl-5-phenylpyrazol-3-yl)oxybenzonitrile], the IC50 is < 10 nM.
For `Cc1c(Oc2cc(C#N)ccc2-c2ncc(CN)cn2)cnn1CC(C)C` [compound 805, 4-[5-(aminomethyl)pyrimidin-2-yl]-3-[5-methyl-1-(2-methylpropyl)pyrazol-4-yl]oxybenzonitrile] the value was 10 to 1000 nM.
For `Cn1nc(C2CC2)cc1Oc1cc(C#N)ccc1-c1ccc([C@@H](O)CN)cn1` [compound 374, 4-[5-[(1R)-2-amino-1-hydroxyethyl]pyridin-2-yl]-3-(5-cyclopropyl-2-methylpyrazol-3-yl)oxybenzonitrile] the value was < 10 nM.
For `N#Cc1ccc(-c2ncc(CN)cn2)c(Oc2cnnc(-n3ccccc3=O)c2)c1` [compound 820, 4-[5-(aminomethyl)pyrimidin-2-yl]-3-[6-(2-oxopyridin-1-yl)pyridazin-4-yl]oxybenzonitrile] the value was > 1000 nM; for `Cn1nc(C2CC2)cc1Oc1cc(F)ccc1-c1ncc(CN)cn1` [compound 1015, [2-[2-(5-cyclopropyl-2-methylpyrazol-3-yl)oxy-4-fluorophenyl]pyrimidin-5-yl]methanamine], 10 to 1000 nM; for `Cn1nc(C2CC2)cc1Oc1cc(C#N)ccc1-c1cccn2c([C@@H](N)CCO)nnc12` (stereo in doubt) [compound 533, 4-[3-(1-amino-3-hydroxypropyl)-[1,2,4]triazolo[4,3-a]pyridin-8-yl]-3-(5-cyclopropyl-2-methylpyrazol-3-yl)oxybenzonitrile], > 1000 nM.
In the case of `CCc1cc(Oc2cc(C#N)ccc2-c2ccc(CCN)cn2)n(C)n1` [Compound 288, 4-[5-(2-aminoethyl)pyridin-2-yl]-3-(5-ethyl-2-methylpyrazol-3-yl)oxybenzonitrile], the IC50 is < 10 nM.
As to `Cc1nc(Oc2cc(C#N)ccc2-n2cc(CCN)cn2)cc(N2CCOCC2)n1` [Compound 259, 4-[4-(2-aminoethyl)pyrazol-1-yl]-3-(2-methyl-6-morpholin-4-ylpyrimidin-4-yl)oxybenzonitrile], the IC50 was 10 to 1000 nM.
With `Cn1nc(C2CC2)cc1Oc1cc(C#N)ccc1-c1cccn2c(C3CNC3)nnc12` [compound 571, 4-[3-(azetidin-3-yl)-[1,2,4]triazolo[4,3-a]pyridin-8-yl]-3-(5-cyclopropyl-2-methylpyrazol-3-yl)oxybenzonitrile], the IC50 was > 1000 nM.
In the case of `CC(C)COCc1cn(Cc2cc(C#N)ccc2-c2ccc(CCN)cc2)cn1` [compound 1119, 4-[4-(2-aminoethyl)phenyl]-3-[[4-(2-methylpropoxymethyl)imidazol-1-yl]methyl]benzonitrile] it was 10 to 1000 nM; in that of `Cc1nc(Oc2cc(C#N)ccc2-c2nc(C)c(C(O)CN)s2)cc(N2CCOCC2)n1` (stereo not drawn) [Compound 129, 4-[5-(2-amino-1-hydroxyethyl)-4-methyl-1,3-thiazol-2-yl]-3-(2-methyl-6-morpholin-4-ylpyrimidin-4-yl)oxybenzonitrile], > 1000 nM.
In the case of `Cn1nc2c(c1Oc1cc(C#N)ccc1-c1ncc(CN)cn1)COCC2` [compound 679, 4-[5-(aminomethyl)pyrimidin-2-yl]-3-[(2-methyl-6,7-dihydro-4H-pyrano[4,3-c]pyrazol-3-yl)oxy]benzonitrile] it was > 1000 nM; in that of `Cc1nc(NC2CC2)cc(Oc2cc(C#N)ccc2-c2ncc(CN)cn2)n1` [compound 633, 4-[5-(aminomethyl)pyrimidin-2-yl]-3-[6-(cyclopropylamino)-2-methylpyrimidin-4-yl]oxybenzonitrile], 10 to 1000 nM; in that of `Cc1nc(Oc2cc(C#N)ccc2-n2cc([C@H](O)CN)cn2)cc(-c2ccccn2)n1` [compound 356, 4-[4-[(1S)-2-amino-1-hydroxyethyl]pyrazol-1-yl]-3-(2-methyl-6-pyridin-2-ylpyrimidin-4-yl)oxybenzonitrile], 10 to 1000 nM.
For `Cn1nc(-c2ccccn2)cc1Oc1cc(C#N)ccc1-c1ccc(CCN)cc1` [Compound 160, 4-[4-(2-aminoethyl)phenyl]-3-(2-methyl-5-pyridin-2-ylpyrazol-3-yl)oxybenzonitrile] the value was < 10 nM; for `Cc1nc(Sc2cc(C#N)ccc2-c2ncc(CCN)cn2)cc(N2CCCCC2)n1` [compound 1255, 4-[5-(2-aminoethyl)pyrimidin-2-yl]-3-(2-methyl-6-piperidin-1-ylpyrimidin-4-yl)sulfanylbenzonitrile], < 10 nM.
In the case of `Cc1nc(Oc2cc(C#N)ccc2-n2ncc3c2CCNC3)cc(N2CCCCC2)n1` [compound 745, 3-(2-methyl-6-piperidin-1-ylpyrimidin-4-yl)oxy-4-(4,5,6,7-tetrahydropyrazolo[4,3-c]pyridin-1-yl)benzonitrile], the IC50 was > 1000 nM.
In the case of `Cc1ncsc1-c1cc(Oc2cc(C#N)ccc2-c2ncc(CN)cn2)n(C)n1` [compound 958, 4-[5-(aminomethyl)pyrimidin-2-yl]-3-[2-methyl-5-(4-methyl-1,3-thiazol-5-y)pyrazol-3-yl]oxybenzonitrile] it was < 10 nM.
As to `Cc1nc(Oc2cc(C#N)ccc2-c2ccc([C@H](O)CN)cn2)cc(-c2ccccn2)n1` [compound 604, 4-[5-[(1S)-2-amino-1-hydroxyethyl]pyridin-2-yl]-3-(2-methyl-6-pyridin-2-ylpyrimidin-4-yl)oxybenzonitrile], the IC50 was < 10 nM.
For the compound `Cc1cc(Oc2cc(C#N)ccc2-c2ncc(OC3CNC3)cn2)cc(N2CCOCC2)n1` [compound 563, 4-[5-(azetidin-3-yloxy)pyrimidin-2-yl]-3-(2-methyl-6-morpholin-4 ylpyridin-4-yl)oxybenzonitrile], the IC50 is > 1000 nM.
As for `N#Cc1ccc(-c2ncc(CN)cn2)c(Oc2nnc(N3CCCC3)s2)c1` [compound 725, 4-[5-(aminomethyl)pyrimidin-2-yl]-3-[(5-pyrrolidin-1-yl-1,3,4-thiadiazol-2-yl)oxy]benzonitrile], the IC50 is > 1000 nM.
In the case of `CC(C)COc1cc(Oc2cc(C#N)ccc2-c2ncc(CN)cn2)cnn1` [compound 819, 4-[5-(aminomethyl)pyrimidin-2-yl]-3-[6-(2-methylpropoxy)pyridazin-4-yl]oxybenzonitrile] it was 10 to 1000 nM; in that of `N#Cc1ccc(-c2ncc(CN)cn2)c(C(=O)c2cnn(-c3ccccn3)c2)c1` [compound 1038, 4-[5-(aminomethyl)pyrimidin-2-yl]-3-(1-pyridin-2-ylpyrazole-4-carbonyl)benzonitrile], 10 to 1000 nM.
For `Cc1nc(Oc2cc(C#N)ccc2-c2ccc(CCN)cc2)cc(N2CCCOCC2)n1` [Compound 31, 4-[4-(2-aminoethyl)phenyl]-3-[2-methyl-6-(1,4-oxazepan-4-yl)pyrimidin-4-yl]oxybenzonitrile] the value was 10 to 1000 nM.
In the case of `Cc1cc(Oc2cc(C#N)ccc2-c2ccc(CN)n3cnnc23)cc(N2CCOCC2)n1` [compound 590, 4-[5-(aminomethyl)-[1,2,4]triazolo[4,3-a]pyridin-8-yl]-3-(2-methyl-6-morpholin-4-ylpyridin-4-yl)oxybenzonitrile] it was > 1000 nM; in that of `Cc1nc(Oc2cc(C#N)ccc2-c2ncc(CN)cn2)cc(N(C)C)n1` [compound 660, 4-[5-(aminomethyl)pyrimidin-2-yl]-3-[6-(dimethylamino)-2-methylpyrimidin-4-yl]oxybenzonitrile], > 1000 nM.
Take `N#Cc1ccc(-c2ncc(CN)cn2)c(C(=O)c2nnc(N3CCOCC3)o2)c1` [compound 1090, 4-[5-(aminomethyl)pyrimidin-2-yl]-3-(5-morpholin-4-yl-1,3,4-oxadiazole-2-carbonyl)benzonitrile]: the IC50 was > 1000 nM.
For `CCCCc1cc(Oc2cc(C#N)ccc2-c2ncc(C(O)CN)cn2)n(C)n1` (stereo not drawn) [compound 337, 4-[5-(2-amino-1-hydroxyethyl)pyrimidin-2-yl]-3-(5-butyl-2-methylpyrazol-3-yl)oxybenzonitrile], the IC50 is < 10 nM.
For `Cc1nc(Oc2cc(C#N)ccc2-n2cc3c(n2)CCNC3)cc(N2CCCCC2)n1` [compound 744, 3-(2-methyl-6-piperidin-1-ylpyrimidin-4-yl)oxy-4-(4,5,6,7-tetrahydropyrazolo[4,3-c]pyridin-2-yl)benzonitrile] the value was 10 to 1000 nM; for `Cc1cc(Oc2cc(C#N)ccc2-c2ncc(CCN)cn2)cc(C2CC2)n1` [compound 315, 4-[5-(2-aminoethyl)pyrimidin-2-yl]-3-(2-cyclopropyl-6-methylpyridin-4-yl)oxybenzonitrile], < 10 nM.
